Assay results reported in patent US20080038809A1, “ISOLATED LECTIN POLYPEPTIDES CONSISTING OF TRUNCATED […] UDP-GalNAc:POLYPEPTIDE N- ACETYLGALACTOSAMINYLTRANSFERASES” (GLYCOZYM APS, priority 2002, published 2008).
Entries after “also recorded” stand apart in the source; their conditions may differ.

Key:
[1] = tested on: MUC1 expression in CHO1d1D/MUC1F-clone2 cells; test: MUC1 expression in cell lysates by immunoprecipitation, SDS-PAGE and western blot; format: cell-based, Chinese hamster (CHO 1d1D cells); human MUC1; conditions: 2 mM; for MUC1 expression: cells in GalNAc or Gal and GalNAc; for SDS-PAGE migration of MUC1 (O-glycan extension): cells in Gal and GalNAc
Protocol: FIG. 12 is an SDS-PAGE Western analysis of GalNAcα-benzyl inhibition of MUC1 expression in CHO 1d1D cells stably transfected with a full coding MUC1 construct. […] Cells were further treated with 2 mM GalNAcα-benzyl (lanes 1, 4, 7, 10), 2 mM GlcNAcα-benzyl (lanes 2, 5, 8, 11) or no inhibitor (lanes 3, 6, 9, 12). Cells were washed and lysed at 24 or 48 hours and the lysates subjected to immunoprecipitation with monoclonal antibody HMFG2, which broadly recognize MUC1 glycoforms. Immunoprecipitates were analysed by SDS-PAGE and western blot using HMFG2 antibody to detect MUC1 expression. Lane M indicates molecular markers with assigned mw. Lane C includes a control MUC1 180-mer tandem repeat peptide which has been GalNAc-glycosylated with 3 moles GalNAc per repeat using GalNAc-T2. The sharp bands migrating at 100-200 kd are immunoglobulins indicated by IgG.
FIG. 13 is a SDS-PAGE Western analysis resulting from the same experiment as in FIG. 12, but using a novel monoclonal antibody, 5E5, to visualize MUC1 expression. […] Cells were further treated with 2 mM GalNAcα-benzyl (lanes 1, 4), 2 mM GlcNAcα-benzyl (lanes 2, 5) or no inhibitor (lanes 3, 6). Cells were washed and lysed at 48 hours and the lysates subjected to immunoprecipitation with monoclonal antibody HMFG2, which broadly recognize MUC1 glycoforms. Immunoprecipitates were analysed by SDS-PAGE and western blot using 5E5 antibody, which selectively recognize GalNAc-glycosylated MUC1 expression and show no reactivity with unglycosylated MUC1 peptides. Lanes M and C as described in legend to FIG. 12.
Cells were further treated with 2 mM GalNAcα-benzyl (lanes 1, 4, 7, 10), 2 mM GalNAcβ-benzyl (lanes 2, 5, 8, 11) or 2 mM GlcNAcα-benzyl (lanes 3, 6, 9, 12). Cells were washed and lysed at 36 hours and the lysates subjected to immunoprecipitation with monoclonal antibodies HMFG2 (lanes 1-6) or 5E5 (lanes 7-12). Immunoprecipitates were analysed by SDS-PAGE and western blot using HMFG2 antibody. Lanes M and C as described in legend to FIG. 7.
FIG. 15 is an SDS-PAGE Western analysis resulting from the same experiment as FIG. 14, except that expression is visualized by the monoclonal antibody 5E5. […] Cells were further treated with 2 mM GalNAcα-benzyl (lanes 1, 4, 7, 10), 2 mM GalNAcβ-benzyl (lanes 2, 5, 8, 11) or 2 mM GlcNAcα-benzyl (lanes 3, 6, 9, 12). Cells were washed and lysed at 36 hours and the lysates subjected to immunoprecipitation with monoclonal antibodies HMFG2 (lanes 1-6) or 5E5 (lanes 7-12). Immunoprecipitates were analysed by SDS-PAGE and western blot using 5E5 antibody. Lanes M and C as described in legend to FIG. 12.
We therefore investigated the effect of treatment with GalNAcα-benzyl of CHO1d1D/MUC1F-clone2 cells grown in the presence of GalNAc. CHO1d1D/MUC1F-clone2 cells were seeded in 6 well plates at a density of 0.2×10^6 per well and were grown for 6 hours in Hams F12 medium with serum until approximately 30% subconfluent. […] After 18 hours, the medium was replaced with fresh Optimem containing the sugars and benzyl derivatives as above and grown for 12-48 hours. Initially we analyzed surface expression of MUC1 by immunocytology. Cells were washed once in PBS-CMF (phosphate buffered saline Calcium and Magnesium free) after carefully removing the medium from the wells and subsequently fixed in 2 ml 3% paraformaldehyde at 25° C. for 20 min followed by three washes with PBS-CMF 3 times. Free aldehyde groups were quenched by incubating in 2 mL 50 mM Ammonium Chloride in PBS-CMF for 10 min, followed by three washes with PBS-CMF and three washes with 5 min incubations each with PBS-CMF containing 0.2% Fish Skin Gelatin (Sigma). Immunostaining of cells was performed by incubation with monoclonal antibodies for 40 min at 25° C., followed by three washes with PBS-CMF and three washes of 5 min each with PBS-CMF containing 0.2% Fish Skin Gelatin. […]

[2] = tested on: MUC5AC secretion, HT29MTX cells; test: MUC5AC secretion from HT29MTX cells by SDS-PAGE Western blotting of media; format: cell-based, human; conditions: 5 mM, 14 days, LUM5-1 antibody
Protocol: FIG. 17 illustrates SDS-PAGE Western analysis of MUC5AC secretion from HT29MTX cells using polyclonal anti-MUC5AC antibody LUM5-1. In order to evaluate GalNAcβ-benzyl as an inhibitor of mucin glycosylation and secretion we used the HT-29 metotrexate (MTX) cultured colon carcinoma cells of mucin secreting phenotype. HT-29 MTX cells have a goblet cell like phenotype with constitutive production of MUC5AC. Cells were continuously grown up to 21 days in the presence of 5 mM GalNAcα-benzyl, 5 mM GalNAcβ-benzyl, 5 mM GlcNAcα-benzyl and without inhibitor. […] In striking contrast, MUC5AC was not detected in the media from cells treated with GalNAcα-benzyl (Lane 3) or GalNAcβ-benzyl (Lane 4). Results shown are from media collected at 14 days.
In order to evaluate GalNAcβ-benzyl as an inhibitor of mucin glycosylation and secretion we used the cultured colon carcinoma cells of mucin secreting phenotypes: HT-29 metotrexate (MTX) cells selected from the HT-29 cell line by culture in the presence of MTX (kind gift from G. Huet, France). The HT-29 MTX cells were selected to yield a goblet cell like phenotype with constitutive production of MUC5AC. In order to ensure proper goblet cell differentiation the HT29MTX cell line were continuously grown up to 21 days in the presence of 5 mM GalNAcα-benzyl, 5 mM GalNAcβ-benzyl, 5 mM GlcNAcα-benzyl and without inhibitor using culture conditions as described in Hennebicq-Reig et al. (Permanent exposure of mucin-secreting HT-29 cells to benzyl-N-acetyl-alpha-D-galactosaminide induces abnormal O-glycosylation of mucins and inhibits constitutive and stimulated MUC5AC secretion. Biochem J. 1998; 334:283-95). […] Furthermore the viscosity of the media from cells with and without inhibitor was evaluated using viscosity micro-measurement.

[3] = 36 hours, 5E5 blot, cells grown in GalNAc

SMILES | reduction in MUC1 expression [1, 3] | MUC1 expression ([1]; 48 hours, 5E5 blot) | MUC1 expression ([1]; 48 hours, HMFG2 blot) | SDS-PAGE migration of MUC1 (O-glycan extension) ([1]; 48 hours) | MUC5AC in media [2] | reduction in MUC1 expression ([1]; 36 hours, HMFG2 blot) | SDS-PAGE migration of MUC1 (O-glycan extension) ([1]; 36 hours)
CC(=O)N[C@H]1[C@@H](OCc2ccccc2)O[C@H](CO)[C@H](O)[C@@H]1O [GalNAcα-benzyl, benzyl-N-acetyl-alpha-D-galactosaminide] | strong inhibition of MUC1 expression | significant reduction in MUC1 expression | significant reduction in MUC1 expression | marked shift in migration to lower molecular weight migrating species | diminished secretion of MUC5AC |  | 
CC(=O)N[C@H]1[C@H](OCc2ccccc2)O[C@H](CO)[C@H](O)[C@@H]1O [GalNAcβ-benzyl] | strong inhibition of MUC1 expression; also recorded: same or better reduction in MUC1 expression as treatment with GalNAcα-benzyl |  |  |  | diminished secretion of MUC5AC | same or better reduction in MUC1 expression as treatment with GalNAcα-benzyl | no change in the migration of MUC1
CC(=O)N[C@H]1[C@@H](OCc2ccccc2)O[C@H](CO)[C@@H](O)[C@@H]1O [GlcNAcα-benzyl] |  |  | no effect on MUC1 expression and O-glycosylation compared to untreated cells |  | detected MUC5AC in media |  | 
